Inconclusive results are not listed. Active and inactive are the calls of the source. How the calls were made is not given here.
The compounds below were run against Histone acetyltransferase RTT109 (Candida albicans (strain SC5314 / ATCC MYA-2876)) (UniProt Q5AAJ8) (assay: C. albicans Rtt109 HAT inhibition curves – biochemical, cherry-picked hits, plate reader, dose response (AID 588764;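 on activity change, negative = inhibition: 0% = neutral control wells and -100% = no enzyme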)). Conditions: Rtt109/Vps75 HAT activity.
Histone acetyltransferase RTT109 (Candida albicans (strain SC5314 / ATCC MYA-2876)), sequence (Q5AAJ8 whole entry, looked up): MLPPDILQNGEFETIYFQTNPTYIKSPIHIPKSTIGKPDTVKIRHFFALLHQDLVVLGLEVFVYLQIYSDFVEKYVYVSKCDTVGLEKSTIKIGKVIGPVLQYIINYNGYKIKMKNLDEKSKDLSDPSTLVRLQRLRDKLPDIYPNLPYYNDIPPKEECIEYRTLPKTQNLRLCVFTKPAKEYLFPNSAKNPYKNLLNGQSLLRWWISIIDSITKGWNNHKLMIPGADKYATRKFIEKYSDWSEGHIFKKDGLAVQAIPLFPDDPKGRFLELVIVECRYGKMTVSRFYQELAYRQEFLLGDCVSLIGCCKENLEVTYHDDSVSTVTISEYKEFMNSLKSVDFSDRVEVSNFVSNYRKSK

Structure (SMILES)	AC50 [µM]
CCc1ccc(C(=O)CSc2ncn[nH]2)cc1	4.11
O=c1c2ccccc2[se]n1-c1ccccc1	1.55
C[C@]12CC[C@@H]3c4ccc(O)c(O)c4CC[C@H]3[C@@H]1CC[C@@H]2O	10
CSS(=O)(=O)c1cccc2cccnc12	7.95
O=C1C(Cl)=C(N2CCOCC2)C(=O)N1c1ccccc1Cl	14.8
CCOc1ccc(N2C(=O)C(Cl)=C(N3CCOCC3)C2=O)cc1	20.3
O=C(O)C1CCc2sc3[nH]c(=S)n(-c4ccccc4)c(=O)c3c21 (stereo not drawn)	9.94
CC1CCc2c(sc(N)c2C(N)=O)C1 (stereo not drawn)	20.5
Cc1ccc(S(=O)(=O)CCC(=O)c2cccc([N+](=O)[O-])c2)cc1	8.29
O=C(c1nnsc1S(=O)c1ccc(Cl)cc1)N1CCOCC1 (stereo not drawn)	6.04
O=C1OC(NC(=O)c2ccccc2)C(n2cc(CO)nn2)=C1Cl (stereo not drawn)	5.2
Cc1ccccc1-n1sc2cc(F)ccc2c1=O	5.9
CC[C@@H](C)[C@H](NC(=O)OC(C)(C)C)c1nnc(S(=O)(=O)Cc2cc(C)ccc2C)o1	12.6
O=C(CCC(=O)OCC(=O)c1ccc([N+](=O)[O-])cc1)Nc1ccccc1Cl	8.57
Cc1cc(C)c2c(=O)n(CC(=O)N3CCC(N4CCCCC4)CC3)sc2n1	4.72

Same assay, conditions: Rtt109/Vps75 HAT activity, at 19.5 µM (top of the series)

Structure (SMILES)	activity change, negative = inhibition
CC1Cc2cc(S(=O)(=O)N3CCC(C(=O)N(C)Cc4ccco4)CC3)ccc2N1C(=O)C1CCC1 (stereo not drawn)	inactive
CCn1c(CCn2c3ccccc3c3ccccc32)n[nH]c1=S	inactive
Cc1ccc(NC(=O)OCc2cc(-c3ccccc3)on2)cc1	inactive
COc1ccccc1NC(=O)CSC(N)=O	inactive
Cc1ccc(/C=C2\SC(=S)N(C(Cc3ccccc3)C(=O)O)C2=O)cc1 (stereo not drawn)	inactive
Cc1ccc(C(=O)NCC(=O)OCCOc2ccccc2Cl)cc1	inactive
O=C(C1CCOCC1)N1CCCC(N2CCN(c3cccc(C(F)(F)F)c3)CC2)C1 (stereo not drawn)	inactive
O=C(NCc1ccncc1)C(=O)NCC(c1ccco1)N1CCN(c2ccc(F)cc2)CC1 (stereo not drawn)	inactive
Cc1ccc(S(=O)(=O)Nc2ccc(O)c3cccnc23)cc1	inactive
Clc1nc(Nc2ccccc2)nc(Nc2ccccc2)n1	inactive
CCN(CC)CCOc1ccc2c(c1)C(=NNC(=O)c1ccccn1)c1cc(OCCN(CC)CC)ccc1-2	inactive
COc1cc2nc(NCCCN3CCN(C)CC3)n3nc(-c4ccccc4)nc3c2cc1OC	inactive
O=C(CSc1nnc(Cc2cccs2)n1C1CCCCC1)N1CCN(C(=O)c2ccco2)CC1	inactive
O=C(NCC(=O)N1CCCCC1)c1ccc2ccccc2c1	inactive
COc1cccc(-c2nn(C)c3sc(C(=O)N4CCN(c5ccccn5)CC4)cc23)c1	inactive
CCOc1cc(S(=O)(=O)N2CCC(Cc3ccccc3)CC2)c(OCC)cc1-n1cnnn1	inactive
Cc1ccc(C(=O)NCCNC(=O)COc2ccccc2Cl)cn1	inactive
Cc1ccc(-n2c(O)c(C=NCc3ccccn3)c3ccccc3c2=O)cc1C	inactive
COc1ccc(C(=O)C(CCC(CNC(C)(C)C)C(=O)c2ccc(OC)cc2)CNC(C)(C)C)cc1 (stereo not drawn)	inactive
CCOc1ccccc1N1CCN(C(=O)c2ccncc2)CC1	inactive
Cc1cc(C(=O)Nc2ccncc2)c(C)o1	inactive
Cc1nn(C2CCS(=O)(=O)C2)c2nc(C3CC3)cc(C(=O)Nc3ccc(C(N)=O)cc3)c12 (stereo not drawn)	inactive
Nc1c(C(=O)c2ccccc2)oc2ccc([N+](=O)[O-])cc12	inactive
CN(C)c1ccc(/C=C/c2ccc3c4ccccc4ccc3[n+]2-c2ccccc2)cc1	inactive
Cc1ccc2c(c1)sc(C)[n+]2CCCS(=O)(=O)[O-]	inactive
CCOc1ccc(N2C(=O)CC(Sc3ccccc3C(=O)O)C2=O)c([N+](=O)[O-])c1 (stereo not drawn)	inactive

Structure (SMILES)	activity change, negative = inhibition
COCCNC(=O)C1=C(N)C(C(=O)Nc2ccc(C)c(S(=O)(=O)N3CCCCC3)c2)SC1=Nc1ccc(C)cc1C (stereo not drawn)	inactive
O=C(Nc1ccc(Cl)c(S(=O)(=O)N2CCCCC2)c1)C1=COCCO1	inactive
CSc1c(SCc2ccccc2)cnn(-c2ccccc2)c1=O	inactive
CC(/C=C1\SC(=S)N(C(C(=O)O)c2ccccc2)C1=O)=C\c1ccccc1 (stereo not drawn)	inactive
O=C(CSc1n[nH]c(-c2ccccc2Cl)n1)NC1CCCCC1	inactive
COc1ccc(CN(C)C(=O)c2cc(S(=O)(=O)N3CCCCCC3)ccc2OC)cc1OC	inactive
O=C1COc2ccc(C(=O)c3ccccc3C(=O)NCc3ccco3)cc2N1	inactive
CC(=O)Nc1ccc(OCc2cccc([N+](=O)[O-])c2)cc1	inactive
COC(=O)c1c(NC(=O)C2CC(C)=C(C)CC2C(=O)O)sc2c1CCCCC2 (stereo not drawn)	inactive
Cc1ccc(CN2CCN(CC(=O)NCc3ccccc3)CC2)cc1	inactive
O=C(C/C=N/OCc1ccc(Cl)cc1Cl)c1ccccc1	inactive
Cc1cc(C)c2sc(C)[n+](CCCS(=O)(=O)[O-])c2c1	inactive
Cc1nn(CC(=O)NCc2cccnc2)c(C)c1[N+](=O)[O-]	inactive
O=C1CN(C(=O)/C=C/c2ccc(Cl)cc2)c2ccccc2N1	inactive
O=C(NNc1ccccc1)C(=O)NNS(=O)(=O)c1ccc(CCCl)cc1	inactive
Cc1ccc(S(=O)(=O)/N=C2\C=C(NS(=O)(=O)c3ccccc3)C(=O)c3ccccc32)cc1	inactive
CC(C)(C)C1CCc2c(sc(NC(=O)CSc3nnc(-c4ccccc4)o3)c2C#N)C1 (stereo not drawn)	inactive
CCOc1ccc(S(=O)(=O)NCCC(=O)Nc2cccc(C(=O)OC)c2)cc1	inactive
CN(CC(=O)Nc1ccc(F)cc1)C(=O)COc1ccccc1Cc1ccccc1	inactive
Cc1ccc(NC(=S)N(CCCN2CCCC2)Cc2cccn2Cc2ccc(Cl)cc2)cc1C	inactive
Cn1c(=O)c2c(nc(NC3CCCCC3)n2CC(=O)C23CC4CC(CC(C4)C2)C3)n(C)c1=O	inactive
Cc1cccc(-n2c(SCC(N)=O)nc3c(c2=O)C2(CCCCC2)Cc2ccccc2-3)c1	inactive
CCOC(=O)C1=C(C)NC(=S)N(C(C)=O)C1c1ccc(Cl)cc1 (stereo not drawn)	inactive
CCOC(=O)C1=C(C)N=c2s/c(=C\c3ccc(OCC(=O)O)cc3)c(=O)n2C1c1ccc(OC(C)C)cc1 (stereo not drawn)	inactive
O=C(Nc1ccc(F)cc1F)N1CCCC(c2nc(-c3ccc(F)cc3)no2)C1 (stereo not drawn)	inactive
CC(=O)NC(CC(=O)NC1CCCc2ccccc21)c1ccccc1 (stereo not drawn)	inactive

Structure (SMILES)	activity change, negative = inhibition
Nc1ccc(Nc2ccncc2[N+](=O)[O-])cc1	inactive
Cc1nn(S(=O)(=O)c2ccc(C(C)C)cc2)c(C)c1S(=O)(=O)N1CCOCC1	inactive
COc1cc(SC#N)ccc1N=Cc1c(C)[nH]n(-c2ccc(C)c(C)c2)c1=O	inactive
Fc1ccc(NC(=S)Nc2ccc(Br)cc2)cc1	inactive
COc1ccccc1C(=O)NCC(=O)N=Nc1c(O)n(C(C)C)c2ccccc12	inactive
COc1ccc(C(=O)NNC(=O)c2ccncc2)cc1	inactive
CN1CCN(S(=O)(=O)c2cccc(C(=O)N(Cc3ccccc3)c3ccccc3)c2)CC1	inactive
CC(C)c1nc(SCC(=O)Nc2ccc(N3CCOCC3)cc2)c2ccccc2n1	inactive
CC1CCN(c2nc(CN3CCCCC3)nc3scc(-c4ccccc4)c23)CC1	inactive
Oc1ccccc1CNc1cnc2ccccc2c1	inactive
COc1cccc(/C=C2/Sc3ccc(C(=O)NCCN4CCCC4)cc3NC2=O)c1	inactive
CC1CCCC(NS(=O)(=O)c2cccc3nsnc23)C1C (stereo not drawn)	inactive
O=C(Nc1ccc(O)c(-c2nc3ccccc3s2)c1)c1cc(=O)c2ccccc2o1	inactive
CCCCCCCCCCCCn1ccc(=N)cc1	inactive
Cc1ccc2nc(N(CCCN(C)C)C(=O)c3sc4ccccc4c3Cl)sc2c1	inactive
O=C(CNC(=O)c1ccncc1)N/N=C/c1cccc([N+](=O)[O-])c1	inactive
O=C(CSc1nnc2ccccn12)NNC(=O)c1cccc(Cl)c1	inactive
CC(=O)c1cccc(S(=O)(=O)N2CCC(C(=O)O)CC2)c1	inactive
CN(C)c1ccc(/C=C/c2cc[n+](C)c3ccccc23)cc1	inactive
COc1cccc(C(=O)NNC(=O)CCC(=O)O)c1	inactive
CCOC(=O)c1ccc(N2C(=O)c3n[nH]c(C)c3C2c2ccc(OC)cc2)cc1 (stereo not drawn)	inactive
CCN(c1ccc(OC)cc1)S(=O)(=O)c1nnc(NC(=O)COc2ccc(C)cc2)s1	inactive
O=C(Cc1ccc(F)cc1)Nc1cccc2cccnc12	inactive
COc1ccc(-[n+]2c(C)cc(/C=C3\Sc4ccccc4N3C)cc2C)cc1	inactive
O=C(O)c1ccc(-c2ccc(/C=N/Nc3ccc([N+](=O)[O-])cc3)o2)cc1	inactive
CC1Cc2ccccc2N1C(=O)c1ccc(N2CCCC2)c([N+](=O)[O-])c1 (stereo not drawn)	inactive
